# Measured values from US20060263805A1, “Diagnosing and treating potassium channel defects” (priority 2005, published 2006).
# Experiments:
# wild-type SUR2A NBD2 = test: NBD2 ATPase activity by spectrophotometry, wild-type; assay type: biochemical
# Description: (§1) Cloning of KATP channel subunits and purification of SUR2A ATPase. cDNAs encoding SUR2A and Kir6.2 were subcloned into the expression vector pcDNA3.1. PCR-based site-directed mutagenesis was carried out using primers incorporating identified mutations (QuickChange, Stratagene). The constructs were sequenced to verify mutations and rule out additional changes in sequence. […]
# (§2) Enzymology and nucleotide binding. ATPase activity of purified NBD2 was measured in the presence of Mg^2+, as Pi generation detected spectrophotometrically at 360 nm with the EnzChek Phosphate Assay Kit or by monitoring conversion of [γ-^32P]ATP using thin layer chromatography and quantified it with Phosphorlmager and ImageQuant software (Molecular Dynamics) (Zingman et al., 2002, supra). […] Binding of fluorescent ATP analog TNP-ATP to purified NBD2 constructs was determined by fluorescence spectrophotometry (QuantaMaster, PTI) at excitation and emission wavelengths of 410 nm and 540 nm, respectively. […]
# (§3) The ADP dissociation constant, KADP, was determined from spectrometric measurement of steady-state NBD2 ATPase activity at [ADP]=O with variable [ATP]. […]
# A1513T SUR2A NBD2 = test: NBD2 ATPase activity by spectrophotometry, A1513T mutant; assay type: biochemical
# Description: as §1, §2, §3
# Fs1524 SUR2A NBD2 = test: NBD2 ATPase activity by spectrophotometry, Fs1524 mutant; assay type: biochemical
# Description: as §1, §2, §3
# [1] = test system: hypertensive wild-type mice; test: Dobutamine challenge, left ventricular catheterization, hypertensive wild-type; assay type: in vivo; conditions: dobutamine 15 mg/kg i.p.
# Description: Left Ventricular Catheterization. Invasive left ventricular pressure recordings were measured in vivo by a 1.4-Fr micropressure catheter (SPR-671, Millar Instruments) following carotid arterial cannulation and advancement across the aortic valve under 2,2,2 tri-bromoethanol ([…] i.p.; Sigma) anesthesia, before and after dobutamine (15 mg/kg i.p.) challenge. Left ventricular developed pressure was defined as the absolute difference between the maximum and minimum left ventricular pressure (mm Hg) and the relaxation time as the time from maximal rate of pressure decay to minimum left ventricular pressure (ms).
# [2] = test system: patient with atrial fibrillation; assay type: in vivo, human; conditions: for response of atrial fibrillation to antiarrhythmic medical therapy: patient
# wild-type hearts [3] = test: Coronary flow in isolated perfused wild-type hearts; design: species or system mice
# wild-type hearts [4] = test: Monophasic action potentials in Langendorff-perfused wild-type hearts under isoproterenol; design: species or system mice
# Description: (§4) In situ aortic cannulation and Langendorff perfusion. Mice were anesthetized with intraperitoneal injection of 2,2,2 tri-bromoethanol (0.375 mg/g body weight; Sigma), intubated, ventilated, and the aortic root cannulated in situ (Hodgson et al., 2003, supra). Perfusion was sustained ex vivo on a Langendorff system at 90 cm H2O, with 37° C.-prewarmed and 100% O2-bubbled Tyrode solution (in mM: NaCl 137, KCl 5.4, CaCl2 2, MgCl2 1, HEPES 10, glucose 10; pH 7.4 with NaOH). Following 10-min equilibration, KCl was reduced to 2.7 mM and MgCl2 to 0.35 mM, with the atrioventricular node cauterized to allow ventricular pacing. Coronary flow was monitored with a T106 blood flow meter (Transonic Systems).
# (§5) Electrogram and monophasic action potential recordings. Orthogonal electrogram signals were simultaneously recorded using four silver-silver chloride electrodes surrounding the perfused heart in a simulated “Einthoven” configuration, and signals amplified by an electrocardiographic amplifier (Gould Electronics). A catheter (NuMed) was placed in the left ventricular endocardium to pace the heart at twice diastolic threshold intensity with 2 ms pulse width and 100 ms cycle length using a pulse generator (A310 Accupulser, World Precision Instruments). Monophasic action potentials were continuously recorded from the left ventricle by a probe (EP Technologies) positioned on the epicardial surface, and amplified signals (IsoDam, World Precision Instruments) acquired at 11.8 kHz and stored for off-line digital analysis.
# Kir6.2-KO hearts = test: Monophasic action potentials in Langendorff-perfused Kir6.2-KO hearts under isoproterenol; design: species or system mice
# From the text: Kir6.2-knockout mice. Mice deficient in KATP channels were generated by targeted disruption of the KCNJ11 gene, which encodes the pore-forming Kir6.2 subunit of the channel complex (Miki et al., 1998, supra). Kir6.2-knockout mice were backcrossed for five generations into a C57BL/6 background. This investigation was approved by the Mayo Clinic Institutional Animal Care and Use Committee.
# as §4, §5
# Kir6.2 knockout mice = test: Telemetric rhythm monitoring under isoproterenol challenge, KATP channel knockout mice; assay type: in vivo; conditions: isoproterenol 10 mg/kg injection; within 20 min
# From the text: (§6) KATP channel knockout mice were backcrossed for 5 generations to a C57BL/6 background. With approval of the Mayo Foundation Institutional Animal Care and Use Committee, the heart rate and electrocardiogram were continuously monitored in the conscious state. To this end, KATP channel knockout or 8- to 12-week old, age- and sex-matched C57BL/6 wild-type mice were implanted with telemetry devices (Data Sciences International) and leads tunneled subcutaneously under isoflurane anesthesia. Following a 2-week recovery from surgery, serial signals were acquired at 2 kHz before and during isoproterenol challenge.
# wild-type mice = test: Telemetric rhythm monitoring under isoproterenol challenge, wild-type mice; assay type: in vivo; conditions: isoproterenol 10 mg/kg injection
# From the text: as §6
# Kir6.1-KO mice = conditions: mouse, in vivo, sc
# From the text: Kir6.1-deficient Mice. Mice deficient in vascular KATP channels (Kir6.1-KO), while maintaining normal KATP channel current in non-vascular tissues including the myocardium, were generated by targeted disruption of the KCNJ8 gene encoding the pore-forming Kir6.1 subunit and backcrossed for more than 5 generations to a C57BL/6 background (Miki et al., 2002, Nat. Med., 8:466-72). Six to eight week-old Kir6.1-KO mice were compared to age and sex matched wild-type littermate controls or to mice lacking non-vascular, including myocardial, KATP channels generated by targeted disruption of the KCNJ11 gene that encodes the Kir6.2 channel pore (Zingman et al., 2002, PNAS USA, 99:13278-83; Suzuki et al., 2001, Circ. Res., 88:570-7). […] Comparisons between groups were performed by analysis of variance, Student's t-tests, non-parametric or log-rank tests, using JMP software (SAS). Data are presented as mean±SEM; n refers to the sample size. P<0.05 was predetermined. All chemicals were obtained from Sigma. The Mayo Foundation Institutional Animal Care and Use Committee approved all experimental protocols.
# Endotoxic Shock. The shock state of severe sepsis was modeled by administration of Escherichia coli LPS serotype 0111:B4 (Natanson et al., 1989, J. Exp. Med., 169:823-32; Suffredini et al., 1989, N. Engl. J. Med., 321:280-7). […]
# Kir6.1-KO hearts = test: Coronary flow in isolated perfused Kir6.1-KO hearts; design: species or system mice
# Description: Coronary Flow. The aorta was cannulated in situ. […] Coronary flow was continuously measured with a T106 small animal blood flow meter (Transonic Systems Incorporated). The effect of recombinant murine TNFα was assessed at least 20 min after flow stabilization. […] Maximum vasodilation was defined as the peak increase in coronary flow observed in the wild-type in response to 10 μl of 1 mM adenosine after at least 10 min of return to baseline flow on TNFα washout.
# [5] = test system: hypertensive wild-type mice; test: Mineralocorticoid/salt hypertension with pharmacologic intervention, wild-type mice; assay type: in vivo; conditions: verapamil 250 μg orally daily
# Description: KATP Channel Knockout and Experimental Hypertension. KATP channel-deficient mice (Kir6.2-KO) were generated by targeted disruption of the KCNJ11 gene (Miki et al., 1998, PNAS USA, 95:10402-6) which encodes the pore-forming Kir6.2 channel subunit of myocardial but not renal or vascular KATP channels, and backcrossed for 5 generations to a C57BL/6 background. […] Water or salt water intake was measured weekly. All mice were given standard rodent chow, had similar awake non-fasting blood glucose levels measured by tail sampling (Table 2; OneTouch Ultra, Lifescan), were housed individually with a 12 h day/night cycle, and were observed daily until termination of the study at day 21. Following one-week of acclimatization, blood pressure was measured by automated tail-cuff recording (Columbus Instruments) in awake restrained wild-type and Kir6.2-KO mice, 2 weeks post-nephrectomy with or without mineralocorticoid/salt loading. […]
# Gross Pathology and Tissue Fibrosis. […] Lung samples were dried at 65° C. for 48 h and reweighed with pulmonary congestion assessed by comparing wet to dry lung weight ratios. Interstitial fibrosis was quantified by computer analysis (MetaMorph, Visitron Universal Imaging) of 0.5-μm thick, paraffin-embedded, Masson's trichrome-stained sections. […] All quantification was performed blinded to the sample origin. […]
# [6] = test system: hypertensive Kir6.2-KO mice; conditions: verapamil 250 μg orally daily
# From the text: KATP Channel Knockout and Experimental Hypertension. KATP channel-deficient mice (Kir6.2-KO) were generated by targeted disruption of the KCNJ11 gene (Miki et al., 1998, PNAS USA, 95:10402-6) which encodes the pore-forming Kir6.2 channel subunit of myocardial but not renal or vascular KATP channels, and backcrossed for 5 generations to a C57BL/6 background. With approval of the Mayo Foundation Institutional Animal Care and Use Committee, Kir6.2-KO or 8- to 12-week old, age-matched, C57BL/6 male wild-type mice had left nephrectomy through a retroperitoneal flank excision under isoflurane-anesthesia to reduce clearance and mineralocorticoid-hypertension was induced for 21 days by subcutaneous implantation of a 50 mg 21-day-release deoxycorticosterone-acetate pellet (Innovative Research of America) and drinking water supplementation with 1% NaCl/0.2% KCl. Control wild-type or Kir6.2-KO mice underwent nephrectomy alone. Water or salt water intake was measured weekly. […] Following one-week of acclimatization, blood pressure was measured by automated tail-cuff recording (Columbus Instruments) in awake restrained wild-type and Kir6.2-KO mice, 2 weeks post-nephrectomy with or without mineralocorticoid/salt loading. Systolic blood pressure was digitally derived from ten sequential recordings.
# Gross Pathology and Tissue Fibrosis. At 21 days, whole heart, left ventricle including septum, kidney and lungs were removed, rinsed, blotted dry, and weighed ex vivo. Lung samples were dried at 65° C. for 48 h and reweighed with pulmonary congestion assessed by comparing wet to dry lung weight ratios. Interstitial fibrosis was quantified by computer analysis (MetaMorph, Visitron Universal Imaging) of 0.5-μm thick, paraffin-embedded, Masson's trichrome-stained sections. Kidney or left ventricular collagen content was determined by assaying hydroxyproline content after overnight hydrolysis by 12 N HCl with samples run in duplicate against standard hydroxyproline (Sigma). All quantification was performed blinded to the sample origin.
# Isolated Cardiomyocytes, Immunohistochemistry and Calcium Imaging. […]
# [7] = test system: wild-type and mutated SUR2A NBD2; test: TNP-ATP binding to purified NBD2 constructs (fluorescence, Scatchard); conditions: Scatchard analysis
# Description: Enzymology and nucleotide binding. ATPase activity of purified NBD2 was measured in the presence of Mg^2+, as Pi generation detected spectrophotometrically at 360 nm with the EnzChek Phosphate Assay Kit or by monitoring conversion of [γ-^32P]ATP using thin layer chromatography and quantified it with Phosphorlmager and ImageQuant software (Molecular Dynamics) (Zingman et al., 2002, supra). The initial kinetics of ATP hydrolysis was captured by stopped-flow spectroscopy with instantaneous mixing of purified polypeptide and substrate on an SX. 18MV spectrometer (Applied Photophysics). Binding of fluorescent ATP analog TNP-ATP to purified NBD2 constructs was determined by fluorescence spectrophotometry (QuantaMaster, PTI) at excitation and emission wavelengths of 410 nm and 540 nm, respectively.
# [8] = ADP-dependent inhibition at 2 mM ATP, read-out: ADP-dissociation constant (KADP)
# [9] = 0 ADP, creatine kinase 0.01 U/ml, creatine phosphate 5 mM
compound,measurement,setting,value
Nc1ncnc2c1ncn2[C@@H]1O[C@H](COP(=O)(O)OP(=O)(O)O)[C@@H](O)[C@H]1O [ADP],Kd,wild-type SUR2A NBD2; [8],8.6 ± 0.3 µM
same,Kd,A1513T SUR2A NBD2; [8],24.9 ± 5.6 µM
same,Kd,Fs1524 SUR2A NBD2; [8],11 ± 1.5 µM
Nc1ncnc2c1ncn2[C@@H]1O[C@H](COP(=O)(O)OP(=O)(O)OP(=O)(O)O)[C@@H](O)[C@H]1O [ATP],Michaelis-Menten constant of NBD2 ATPase (ATP dependence),wild-type SUR2A NBD2; [9],0.11 ± 0.02 mM
same,Michaelis-Menten constant of NBD2 ATPase (ATP dependence),A1513T SUR2A NBD2; [9],0.094 ± 0.013 mM
same,Michaelis-Menten constant of NBD2 ATPase (ATP dependence),Fs1524 SUR2A NBD2; [9],0.084 ± 0.010 mM
CC(CCc1ccc(O)cc1)NCCc1ccc(O)c(O)c1 (stereo not drawn) [dobutamine],response to inotropic challenge,[1],normal contractile response to the same stress challenge with no death
O=C(NCC1CCCCN1)c1cc(OCC(F)(F)F)ccc1OCC(F)(F)F (stereo not drawn) [flecainide],response of atrial fibrillation to antiarrhythmic medical therapy,[2],refractory and/or intolerant
COc1ccc(Cl)cc1C(=O)NCCc1ccc(S(=O)(=O)NC(=O)NC2CCCCC2)cc1 [glyburide],TNFα-induced increase in coronary flow after glyburide pre-treatment,wild-type hearts [3]; 10 min perfusion of 10 μM glyburide before TNFα,not observed
CC(C)NCC(O)c1ccc(O)c(O)c1 (stereo not drawn) [isoproterenol],hearts with isoproterenol-induced afterdepolarizations complicated by triggered activity,wild-type hearts [4]; 1 out of 6,16%
same,monophasic action potential duration at 90% repolarization (APD90) after isoproterenol,"wild-type hearts [4]; 10-min perfusion, isoproterenol 1 mM, before 82±2",74 ± 2 ms
same,"early afterdepolarizations, share of action potentials examined",wild-type hearts [4]; isoproterenol challenge,1±1%
same,hearts with isoproterenol-induced afterdepolarizations complicated by triggered activity,"Kir6.2-KO hearts; Kir6.2-KO hearts, 6 out of 8",75%
same,monophasic action potential duration at 90% repolarization (APD90) after isoproterenol,"Kir6.2-KO hearts; Kir6.2-KO hearts, 10-min perfusion, isoproterenol 1 mM, before 79±3",80 ± 3 ms
same,"early afterdepolarizations, share of action potentials examined","Kir6.2-KO hearts; Kir6.2-KO hearts, isoproterenol challenge",97±2%
same,"fold higher risk of premature ventricular complexes, Kir6.2-KO versus wild-type",Kir6.2-KO hearts; isoproterenol challenge,16 fold
same,knockouts with atrial fibrillation,Kir6.2 knockout mice,70%
same,cardiac rhythm after isoproterenol,wild-type mice,maintained normal sinus rhythm
same,atrial fibrillation under isoproterenol infusion,"[2]; patient with ABCC9 mutation, before ablation",provoked
CC(C)NCC(O)c1ccc(NS(C)(=O)=O)cc1 (stereo not drawn) [sotalol],complication of drug use,"[2]; human, in vivo",symptomatic bradycardia
same,response of atrial fibrillation to antiarrhythmic medical therapy,[2],refractory and/or intolerant
COc1ccc(CCN(C)CCCC(C#N)(c2ccc(OC)c(OC)c2)C(C)C)cc1OC (stereo not drawn) [verapamil],median survival time,Kir6.1-KO mice,24 h
same,coronary vasodilation in TNFα-challenged hearts,Kir6.1-KO hearts; 1 μM verapamil after TNFα,reinstated coronary vasodilation
same,left ventricular hypertrophy,[5],not affected
same,mortality,[6]; hypertensive Kir6.2-KO,prevention of all mortality
same,syndrome of heart failure including lung congestion,[6]; hypertensive Kir6.2-KO,averted
same,degree of systemic hypertension,[6],did not affect
TNFα,coronary vasodilation (coronary flow) under TNFα,wild-type hearts [3]; recombinant TNFα 4 μg/l,induced maximal coronary vasodilation
same,TNFα-induced increase in coronary flow,"Kir6.1-KO hearts; 4, 8 or 20 μg/l TNFα",not observed
TNP-ATP,"binding affinity of TNP-ATP, wild-type versus mutated NBD2",[7],similar
